In EP0541192A1, “Use of opiate antagonists for the treatment of endogen hyperinsulinemia” (Ferring Arzneimittel GmbH, priority 1991, dated 1993):

Tests used:
[1] = oral glucose tolerance test (oGTT) before and after 4 weeks of treatment; assay type: in vivo, Frauen; settings: 50 mg/Tag oral
Experimental: (§1) Die folgenden Untersuchungen wurden an vier gegenüber Insulin resistenten Frauen durchgeführt, welche ein Hyperandrogenämie litten. Das Alter der Frauen lag zwischen 16 und 33 Jahren und ihr Körpermasseindex (Body mass Index - BMI) reichte von 28 bis 41. Die Hyperandrogenämie wurde durch Bestimmung von LH, FSH, Prolactin, Testosteron, freien Testosteronen, SHBG und DHEAS im Serum diagnostiziert. Vor der Behandlung lagen die Testosteronwerte zwischen 0,4 und 1,65 ng/ml und die Insulinkonzentrationen betrugen von 25 bis 62 mcU/ml.
Die Insulinresistenz wurde durch orale Verabreichung von 400 ml einer Lösung nachgewiesen, welche eine Mono-Oligosaccharidmischung enthielt, die nach enzymatischer Hydrolyse im Gastrointestinaltrakt 100 g Glucose lieferte (Dextro-oGTT, Boehringer Mannheim). Während des oralen Glucose-Toleranz-Tests (oGTT) wurden vor der Kohlenhydratbelastung und danach 3 Stunden lang im Abstand von jeweils 15 Minuten Blutproben entnommen. In allen Proben wurde die Glucosekonzentration mit dem Hexokinase/Glucose-6-Phosphatdehydrogenase-Verfahren bestimmt. Ferner wurden die Insulin- und C-Peptidkonzentrationen mit handelsüblichen Radioimmun-Kits (Serono Diagnostic, Freiburg) bestimmt. Die Ergebnisse des oGTT wurden ausgewertet, indem das Verhältnis von Insulin zu Glucose berechnet wurde und die Flächen unter den Glucose-, Insulin- und C-Peptid-Kurven während des oGTT bestimmt wurden (vgl. Figur 1).
(§2) Als Opiat-Antagonist wurde Naltrexon (Ferring Arzneimittel GmbH, Kiel) in einer Dosis von 50 mg/Tag oral verabreicht. 4 Wochen nach Beginn der Naltrexon-Behandlung wurde nach dem gleichen Verfahren wie oben beschrieben ein zweiter oGTT durchgeführt und die Ergebnisse dieses Tests mit den vor Beginn der Behandlung erhaltenen Ergebnissen verglichen, wobei die Proben paarweise einem t-Test unterworfen wurden.

[2] = serum androgen and pituitary hormone levels during treatment; assay type: in vivo, Frauen; settings: 50 mg/Tag oral
Experimental: as §1, §2
Im Gegensatz dazu blieben die Androgenkonzentrationen sowie die LH-, FSH- und Prolactin-Spiegel durch die Naltrexon-Behandlung unbeeinflußt.

[3] = side effects / tolerability during treatment; assay type: in vivo, Frauen; settings: 50 mg/Tag oral
[4] = general statement, no data; cited from earlier work

In the case of O=C1CC[C@@]2(O)[C@H]3Cc4ccc(O)c5c4[C@@]2(CCN3CC2CC2)C1O5 (stereo partly drawn) [Naltrexon, 17-(Cyclopropylmethyl)-4,5-epoxy-3,14-dihydroxymorphinan-6-on], the “Verhältnis von Insulin zu Glucose” value ([1]; oGTT) is reported as “sank”, the “molare Verhältnis von C-Peptid zu Insulin” value ([1]; oGTT) is reported as “stieg” and the “Konzentration von C-Peptid” value ([1]; oGTT, reduced, but not to the same extent as insulin) is reported as “reduziert”. For the same compound, the “Insulinspiegel nach Kohlenhydratbelastung” value ([1]; four insulin-resistant hyperandrogenaemic women, oGTT vs. before treatment) was “beeindruckende Senkung”, the Androgenkonzentrationen [2] was “unbeeinflußt” and the FSH-Spiegel [2] was “unbeeinflußt”. For the same compound, the LH-Spiegel [2] was “unbeeinflußt”, the Prolactin-Spiegel [2] was “unbeeinflußt” and the “Veränderungen des Blutbildes, der Leberenzyme und des Nierenstatus” value [3] was “nicht beobachtet”. For the same compound, the Nebenwirkungen ([3]; one of four patients) was “Übelkeit mit Erbrechen und leichten Kopfschmerzen”, the Verträglichkeit ([3]; three of four patients) was “gut vertragen” and the “Verweildauer im Plasma” value [4] was “lange”.
